Measured values: ChEMBL document CHEMBL1201862, “PubChem BioAssay data set” (2004)
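Step 1: Grow cells in 96-well plates. Step 2: Expose to compound for 48 hours at 5 concentrations. Step 3: Interpolate endpoints linearly; if unreached, use highest concentration. GI50: concentration for 50% inhibition of growth.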 Calls of active or inactive are those of the source. Rule as the data show it: active = GI50 up to about 1.1 µM and inactive = higher. Residues, ends and D or L forms follow the SMILES beside them.

Columns and labels:
Assay in all cases: DTP human tumour cell line panel, 48 h
[1] = system: ACHN
[2] = system: COLO 205
[3] = system: EKVX
[4] = system: HCT-116
[5] = system: HCT-15
[6] = system: HL-60
[7] = system: HOP-92
[8] = system: KM12
[9] = system: LOX IMVI
[10] = system: M14
[11] = system: MCF7
[12] = system: MDA-MB-435
[13] = system: Malme-3M
[14] = system: NCI-H23
[15] = system: NCI-H460
[16] = system: OVCAR-8
[17] = system: SK-MEL-2
[18] = system: SK-OV-3
[19] = system: SNB-19
[20] = system: UACC-62

SMILES | GI50 [1] | GI50 [2] | GI50 [3] | GI50 [4] | GI50 [5] | GI50 [6] | GI50 [7] | GI50 [8] | GI50 [9] | GI50 [10] | GI50 [11] | GI50 [12] | GI50 [13] | GI50 [14] | GI50 [15] | GI50 [16] | GI50 [17] | GI50 [18] | GI50 [19] | GI50 [20]
CN1CCN(c2ccc([N+](=O)[O-])c3no[n+]([O-])c23)CC1 | 0.0395 µM (active) | 0.656 µM (active) | 1.19 µM (inactive) | 0.12 µM (active) | 0.489 µM | 0.0366 µM (active) | 0.526 µM (active) | 0.098 µM (active) | 0.0485 µM (active) | 0.153 µM (active) | 0.0817 µM (active) | 1.05 µM (active) | 0.16 µM (active) | < 0.0359 µM (active) | 0.0334 µM (active) | 0.24 µM (active) | 1.34 µM (inactive) | 0.148 µM (active) | 0.914 µM (active) | 0.769 µM (active)
CCCNCC(O)CNc1ccc(NCC(O)CNCCC)c2c1C(=O)c1ccccc1C2=O (stereo not given) | 8.83 µM (inactive) | 2.31 µM (inactive) | 7.73 µM (inactive) | 2.56 µM (inactive) | 43.9 µM | 2.52 µM (inactive) | 2.07 µM (inactive) | 3.41 µM (inactive) | 1.44 µM (inactive) | 3.33 µM (inactive) | 2.54 µM (inactive) | 2.81 µM (inactive) | 2.7 µM (inactive) | 3.24 µM (inactive) | 2.42 µM (inactive) | 2.26 µM (inactive) | 2.16 µM (inactive) | 2.04 µM (inactive) | 1.95 µM (inactive) | 1.9 µM (inactive)
CC(C)=C=CC(C)(C)NS(=O)(=O)NC(C)(C)C=C=C(C)C | > 100 µM (inactive) | > 100 µM (inactive) | > 100 µM (inactive) | > 100 µM (inactive) | > 100 µM | 28.2 µM (inactive) | > 100 µM (inactive) | > 100 µM (inactive) | > 100 µM (inactive) | > 100 µM (inactive) | > 100 µM (inactive) | > 100 µM (inactive) | > 100 µM (inactive) | > 100 µM (inactive) | 80.9 µM (inactive) | > 100 µM (inactive) | > 100 µM (inactive) | > 100 µM (inactive) | > 100 µM (inactive) | > 100 µM (inactive)
CCN(CC)CCN1CCN=c2c3cc(OC)ccc3n3cnc4ccc1c2c43 | 0.339 µM (active) | 0.362 µM (active) | 1.01 µM (active) | 0.3 µM (active) | 0.211 µM | 0.43 µM (active) | 1.12 µM (inactive) | 0.367 µM (active) | 0.311 µM (active) | 0.719 µM (active) | 0.171 µM (active) | 0.522 µM (active) | 1.22 µM (inactive) | 0.713 µM (active) | 0.199 µM (active) | 0.318 µM (active) | 0.587 µM (active) | 1.6 µM (inactive) | 0.481 µM (active) | 1.71 µM (inactive)
C=C(Cl)C(Cl)(CBr)CCCC(C)(C)Cl (stereo not given) | 6.68 µM (inactive) | 7.5 µM (inactive) | 18.5 µM (inactive) | 14.1 µM (inactive) | 26.3 µM | 1.53 µM (inactive) | 2.41 µM (inactive) | 1.7 µM (inactive) | 11.9 µM (inactive) | > 75.2 µM (inactive) | 7.1 µM (inactive) | 27.2 µM (inactive) | 18 µM (inactive) | 45 µM (inactive) | 5.71 µM (inactive) | 18.7 µM (inactive) | 11.4 µM (inactive) | > 100 µM (inactive) | 14.7 µM (inactive) | 17.4 µM (inactive)
CC(=O)NC(CO)C(=O)NC(Cc1ccc(O)cc1)C(=O)NCC(N)=O (stereo not drawn) (Ac-Ser-Tyr-Gly-NH2; configuration not given here) | > 100 µM (inactive) | > 100 µM (inactive) | > 100 µM (inactive) | > 100 µM (inactive) | > 100 µM | > 100 µM (inactive) | > 100 µM (inactive) | > 100 µM (inactive) | > 100 µM (inactive) | > 100 µM (inactive) | > 100 µM (inactive) | > 100 µM (inactive) | > 100 µM (inactive) | > 100 µM (inactive) | > 100 µM (inactive) | > 100 µM (inactive) | > 100 µM (inactive) | > 100 µM (inactive) | > 100 µM (inactive) | > 100 µM (inactive)
